Laboratory results published in patent US12617770B2, “IRAK inhibitor and preparation method therefor and use thereof” (WUHAN CREATERNA SCIENCE AND TECHNOLOGY CO., LTD., priority 2019, dated 2026).

Assays:
[1] = biological target: T1, CYP3A4 (Homo sapiens, UniProt P08684); experiment: Time-dependent inhibition (TDI) of CYP3A4 in human liver microsomes; assay type: in vitro ADME; settings: probe substrate midazolam
T1 construct: The test compounds were co-incubated with the human liver microsomes and a probe substrate midazolam (CYP3A4); tissue Corning (USA); host or cells: mixed (pooled) human liver microsomes
T1 sequence (P08684 whole entry): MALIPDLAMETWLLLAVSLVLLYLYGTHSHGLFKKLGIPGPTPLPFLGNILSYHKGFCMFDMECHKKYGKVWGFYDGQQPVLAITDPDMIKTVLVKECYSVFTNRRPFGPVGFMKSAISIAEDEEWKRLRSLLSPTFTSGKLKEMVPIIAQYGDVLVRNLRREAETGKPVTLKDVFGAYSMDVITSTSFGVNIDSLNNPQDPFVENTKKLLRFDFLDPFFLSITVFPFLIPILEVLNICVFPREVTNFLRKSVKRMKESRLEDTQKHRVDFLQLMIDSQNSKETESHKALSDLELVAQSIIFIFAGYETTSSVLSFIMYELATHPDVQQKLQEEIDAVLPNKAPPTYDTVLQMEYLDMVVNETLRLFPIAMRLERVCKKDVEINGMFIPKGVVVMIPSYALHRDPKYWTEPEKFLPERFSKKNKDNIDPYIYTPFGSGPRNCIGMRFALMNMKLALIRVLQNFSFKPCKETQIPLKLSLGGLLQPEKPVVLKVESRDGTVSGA
Method: This study was intended to investigate the time-dependent inhibition effect of the compounds on CYP3A4 in human P450 superfamily. The mixed human liver microsomes used in this assay were purchased from Corning (USA).
The test compounds were co-incubated with the human liver microsomes and a probe substrate midazolam (CYP3A4), and the concentration of the test compounds was set at 30 μM. The reaction was initiated by adding coenzyme NADPH, and terminated by adding acetonitrile dossolved with internal standard in advance. After the proteins were precipitated, the supernatant was centrifuged. The characteristic metabolite 1-hydroxy-midazolam (CYP3A4) in the supernatant was analyzed by LC-MS/MS. The influence of the test compounds on production of the characteristic metabolites was finally analyzed on the basis of the data obtained. A selective inhibitor (verapamil for CYP3A4-M) was used as positive control.

[2] = biological target: T2, CYP2C19 (Homo sapiens, UniProt P33261); experiment: CYP450 inhibition in human liver microsomes, CYP2C19; assay type: in vitro ADME; settings: pooled (mixed) human liver microsomes, probe mephenytoin
T2 construct: co-incubated at 7 concentrations with human liver microsomes and five probe substrates; tissue Corning (USA); host or cells: mixed (pooled) human liver microsomes
T2 sequence (P33261 whole entry): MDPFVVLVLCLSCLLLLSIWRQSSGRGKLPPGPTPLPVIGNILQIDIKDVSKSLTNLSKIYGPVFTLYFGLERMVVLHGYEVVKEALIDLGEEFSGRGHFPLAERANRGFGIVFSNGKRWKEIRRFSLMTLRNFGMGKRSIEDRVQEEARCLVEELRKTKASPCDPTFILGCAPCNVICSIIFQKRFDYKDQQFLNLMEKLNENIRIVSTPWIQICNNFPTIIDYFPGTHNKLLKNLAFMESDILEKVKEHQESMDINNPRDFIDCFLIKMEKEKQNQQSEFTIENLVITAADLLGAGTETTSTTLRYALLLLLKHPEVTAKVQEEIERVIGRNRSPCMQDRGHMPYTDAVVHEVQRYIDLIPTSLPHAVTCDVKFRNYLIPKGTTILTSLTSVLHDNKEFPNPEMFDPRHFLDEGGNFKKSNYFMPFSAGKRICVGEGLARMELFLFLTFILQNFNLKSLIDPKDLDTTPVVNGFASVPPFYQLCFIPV
Method: This study was intended to investigate the inhibitory effect of the test compounds on 5 major enzymes in human P450 superfamily, CYP1A2, 2C9, 2C19, 2D6 and 3A4-M. The mixed human liver microsomes used in this assay were purchased from Corning (USA). The test compound (compound 14) was co-incubated at 7 concentrations with human liver microsomes and five probe substrates (phenacetin for CYP1a2, diclofenac for CYP2C9, mephenytoin for CYP2C19, dextromethorphan for CYP2D6, midazolam for CYP3A4-M, mixed). The reaction was initiated by adding coenzyme NADPH, and terminated by adding acetonitrile containing internal standard. After the proteins were precipitated, the supernatant was centrifuged. The characteristic metabolites in the supernatant (acetaminophen for CYP1A2, 4-hydroxydiclofenac for CYP2C9, 4-hydroxymephenytoin for CYP2C19, dextrorphan for CYP2D6, 1-hydroxymidazolam for CYP3A4-M) were analyzed by LC-MS/MS. The influence of the test compounds on production of the characteristic metabolites was finally analyzed on the basis of the data obtained. A selective inhibitor (ketoconazole for CYP3A4-M) may be used as positive control. All samples were tested in duplicate.

SMILES	TDI (3A4, 30 μM) [1]	IC50 [2]
COc1cc2nn([C@H]3CC[C@](C)(O)CC3)cc2cc1NC(=O)c1cccc(C)[n+]1[O-] [Compound 001, 2-((2-((1r,4r)-4-hydroxy-4-methylcyclohexyl)-6-methoxy-2H-indazol-5-yl)carbamoyl)-6-methylpyridine 1-oxide]	−3.68%	> 30 µM
COc1cc2nn(CCC(C)(C)O)cc2cc1NC(=O)c1cccc(C)[n+]1[O-] [Compound 163, 2-((2-(3-hydroxy-3-methylbutyl)-6-methoxy-2H-indazol-5-yl)carbamoyl)-6-methylpyridine 1-oxide]	–	> 30 µM
